From patent US5969174A, “Competitive inhibitors of glyoxalase I and method of generating such competitive inhibitors inside tumor cells” (priority 1998, dated 1999)
“Also recorded” adds a separate entry of the source. Like-named read-outs stand apart in the source and are kept apart here.

Tests used:
[1] = system: rat adrenal pheochromocytoma PC-12 cells; settings: literature (26); read-out: IC50, growth of PC-12 cells; cited from earlier work
[2] = Acyl-interchange reaction with glutathione in a cell-free system; type: physicochemical; settings: for k2, second order rate constant for acyl-interchange with glutathione: 50 mM potassium phosphate, pH 7.5, 5% ethanol, 25° C.
Protocol: In principle, an acyl-interchange reaction might serve as the basis of an improved prodrug strategy, provided that the acylating reagent diffuses rapidly across cell membranes and then reacts rapidly with intracellular glutathione to give the enediol analog. Three N-hydroxycarbamate thioethyl esters (2(a-c)) and the corresponding sulfoxides (3(a-c)) were prepared (FIG. 7) and their rates of acyl-interchange with glutathione in a cell free system evaluated (Table II). Sulfoxidation of N,N-di-n-propylcarbamate thioalkyl esters activates these species for acyl-interchange with glutathione. […] The N--OH function appears to inductively activate the sulfoxides for acyl-interchange, as the rate constant for 3a exceeds that of the corresponding N--CH3 derivative 3c by 13-fold. The products of the interchange reactions were confirmed as the corresponding enediol analogs, on the basis that their UV spectra and their migratory properties on a reverse-phase C18 column were identical with those of authentic samples of enediol analog.
Second order rate constants for the
acyl-interchange reactions between glutathione and the list thioesters
CH3 CH2 XC(O)N(Y)Z + GSG ---(k2)--> GSC(O)B(Y)Z +
Conditions: Potassium phosphate buffer (50 mM), pH 7.5, 5% ethanol, […]

tumor cells = settings: literature (5-8); cited from earlier work
HL60 cells [3] = settings: literature (15); cited from earlier work
HL60 cells [4] = settings: cited from earlier work
[5] = Stability in mouse serum/plasma; type: in vitro ADME
L1210 cells [6] = experiment: Cell permeability / intracellular appearance of enediol analog in L1210 cells; type: in vitro ADME, murine
Protocol: In order to understand the mechanism of intracellular delivery of the enediol analogs, suspensions of L1210 cells were separately incubated with the diacid 2 and with the corresponding diethyl ester 2(Et)2. The rate of appearance of these species in the intracellular fraction was then monitored as a function of time by reverse-phase HPLC (FIG. 4). […] After 90 minutes, the concentration of 2 decreased, possibly due to a combination of factors including (a) 10-20% cell death over the course of the experiment, (b) hydrolytic deethylation of extracellular 2(Et)2, and (c) GlxII-catalyzed decarbamoylation of intracellular 2.
To suspensions of L1210 cells (~1.5(10^6 cells/ml) in RPMI 1640 medium, containing 10% heat-inactivated fetal calf serum, gentamycin (10 μg/ml) and L-glutamate, at 37° C., were added fixed concentrations of 2a. Aliquots (1 ml) were removed from the cell suspension as a function of time, overlaid onto 0.4 ml of silicone oil (SF-1250 silicone fluids, General Electric Co., Silicone Products Division, Waterford, N.Y.) contained in an eppendorf centrifuge tube and centrifuged at 11,000×g (15 min) at 25° C. The supernatant and silicone oil were decanted from the cell pellet and residual oil removed from the inside of the centrifuge tube with a cotton swab. To the pellet was added 1 ml 70% ethanol in water and the suspension sonicated for 5 minutes. The denatured protein was sedimented by centrifugation (11,000×g, 15 min) and the clear supernatant was removed. The supernatant was brought to dryness under a stream of argon, and the resulting residue was fractionated by reverse-phase HPLC (Waters μBondapak C18, 0.78(30 cm), using a mobile phase composed of methanol:water (1:1) containing 0.25% acetic acid at a flow rate of 2 ml/min. The integrated intensity of the peak corresponding S-(N-p-chlorophenyl-N-hydroxycarbamoyl) glutathione was determined at λ=260 nm. Concentrations were extrapolated from standard curves that were linear in the range 0.1 to 4.0 nmoles (r=0.997).

L1210 cells [7] = experiment: Growth inhibition / cytotoxicity, murine leukemia L1210 cells in culture; type: cell-based; settings: for IC50: L1210, 48 h; for greater potency of sulfoxide versus diethyl ester: L1210 cells
human erythrocyte GlxI = settings: cited from earlier work
[8] = system: B16 melanotic melanoma cells; experiment: Growth inhibition, B16 melanotic melanoma cells in culture; type: cell-based, murine
Protocol: As a consequence, they are the strongest competitive inhibitors of human GlxI yet described, Table 1. […] With both cell lines there was some correlation between the Ki values of the enediol analogs and the IC50 values of the corresponding diethyl esters.
^d Sp-bromobenzylglutathione diethyl ester. Cells were incubated for
48 h in RPMI 1640/10% fetal calf serum (37° C.) in the absence and
in the presence of enzyme inhibitor. After the initial addition of
inhibitor at time zero, fresh inhibitor was added every 12 h in order to
compensate partially for the loss of inhibitor due to spontaneous
hydrolytic deethylation in the growth medium.

[9] = n-octanol/water partition coefficient
splenic lymphocytes = experiment: Toxicity toward nonproliferating splenic lymphocytes; type: cell-based
Source text: Conditions: See Table 1. Error bars represent standard deviations for triplicate determinations. Different symbols correspond to experiments carried out on different days.
This is illustrated for 2(Et)2 and S-p-bromobenzylglutathionediethyl ester by the dose-response curves of FIG. 3. […] Therefore, tumor cells might not be able to detoxify the inhibitors as rapidly as normal cells. In order to determine whether this could be a factor in the present study, the glyoxalase activities in both L1210 cells and splenic lymphocytes were determined. Indeed, while the GlxI activities in the two cell lines are nearly equal, the GlxII activity in L1210 cells is about 10-fold lower than that in splenic lymphocytes. The activities of GlxI and GlxII in L1210 cells were respectively 0.31±0.03 U/mg and 0.02±0.003 U/mg, while the activities in splenic lymphocytes were respectively 0.36±0.03U/mg and 0.20±0.03 U/mg.

Stability in human serum = type: in vitro ADME
Protocol: To 0.5 ml portions of either human serum or mouse serum, at 37° C., was added compound 2(Et)2 to an initial concentration of approximately 0.15 mM. As a function of time, 0.1 ml aliquots of the incubation mixture were transferred to separate microfuge tubes. The samples were immediately deproteinized by the addition of 70% ethanol (0.9 ml). After incubation for 30 minutes at 37° C., the protein precipitate was sedimented by centrifugation at […]. The supernatants were then fractionated by reverse-phase HPLC, as described above, and the integrated intensities of the peaks corresponding to 2(Et)2 determined. The rate constants for deethylation were calculated from the first-order rate of loss of 2(Et)2 as a function of time.
To identify a murine model suitable for in vivo testing of the GlxI inhibitors, the stability of 2(Et)2 was evaluated in human serum and in serum samples obtained from different strains of tumor-bearing mice. In human serum, 2(Et)2 undergoes slow first-order hydrolysis to a mixture of diacid and monoethyl esters, as monitored by reverse-phase HPLC (FIG. 6). For serum samples obtained from four different individuals, T1/2 =9.1±5.3 hours (n=4). […]

L1210 cells [10] = experiment: Cell permeability / intracellular appearance of enediol analog in L1210 cells; type: in vitro ADME, murine; remark: listed apart in the source

For CC(C)OC(=O)CNC(=O)[C@H](CSC(=O)OCC1c2ccccc2-c2ccccc21)NC(=O)CC[C@H](N)C(=O)OC(C)C [S-fluorenylmethoxycarbonyl glutathionediisopropyl ester], the IC50 [1] is given as 275 µM.

With CC[S+]([O-])C(=O)N(C)O (stereo not shown) [Compound 3b] the “rate constant relative to thioester 2a” value [2] was “exceed by several-fold that with the thioester 2 a” and the “k2, second order rate constant for acyl-interchange with glutathione” value [2] was 9.83 ± 0.33 M⁻¹ s⁻¹.

For CC(=O)C=O [methylglyoxal], the “inhibition of tumor cells by exogenous methylglyoxal” value (tumor cells) is given as “selective inhibitory activity toward rapidly proliferating tumor cells versus nonproliferating normal cells in vitro; also recorded: inhibit the growth of tumor cells in tissue culture”.

For N[C@@H](CCC(=O)N[C@@H](CSCc1ccc(Br)cc1)C(=O)NCC(=O)OC1CCCC1)C(=O)OC1CCCC1 [dicyclopentyl ester of S-p-bromobenzylglutathione], the “concentration of intracellular methylglyoxal” value (HL60 cells [3]) is given as “increased the measured concentration of intracellular methylglyoxal” and the “potency relative to the diethyl ester, HL60” value (HL60 cells [4]; literature (14)) is given as “twice as potent as the diethyl ester”.

For N[C@@H](CCC(=O)N[C@@H](CSCc1ccc(Br)cc1)C(=O)NCC(=O)O)C(=O)O [S-p-bromobenzylglutathione], the “effect on human leukemia HL60 cells” value (HL60 cells [4]; literature) is listed as “both cytostatic and cytotoxic to these cells”.

With CCOC(=O)CNC(=O)[C@H](CSC(=O)N(O)c1ccc(Cl)cc1)NC(=O)CC[C@H](N)C(=O)OCC [2(Et)2, S-(N-p-chlorophenyl N-hydroxycarbamoyl) glutathione diethyl ester] the half-life at 150 µM ([5]; mouse, serum, DBA/2(C57BL/6 mice, n=5, read-out: T1/2 in serum of plasma esterase-deficient mice (converted)) was 3.9 ± 0.6 h, the half-life at 150 µM ([5]; mouse, serum, DBA/2, C57BL/6, NCr nu/nu and CD2 F1 mice, read-out: T1/2, deethylation in mouse serum) was less than 0.00833 h and the “intracellular uptake in words” value (L1210 cells [6]; L1210 cells) was “rapid increase in intracellular [2] during the first 90 min; also recorded: linear function of extracellular [2(Et)2 ] in the range 0.01 to 1.0 mM; also recorded: Only trace amounts of the monoethyl esters and diethyl ester of 2 were found in the intracellular fractions; also recorded: high intracellular concentrations of the corresponding diacid 2”. The “maximum concentration of 2 inside cells versus extracellular concentration of 2(Et)2” value (L1210 cells [6]; exceeds extracellular) was “about three-fold”, the “apparent first order rate constant for diffusion of diethyl ester into L1210 cells” value (L1210 cells [6]; in vitro, 37° C.) was 0.04 min⁻¹ and the “first order rate constant for appearance of 2 inside L1210 cells” value (L1210 cells [6]; incubated in the presence of 2(Et)2) was 2.2 h⁻¹. For the same compound, the “growth inhibition / cytotoxicity in words, L1210” value (L1210 cells [7]; L1210 cells in vitro) was “inhibited the growth”, the cytotoxicity at 100 µM (L1210 cells [7]; Mus musculus, L1210, 48 h, 100 μM, read-out: killing of L1210 cells) was roughly 100% and the IC50 (L1210 cells [7]; Mus musculus, RPMI 1640/10% fetal calf serum, 37° C., fresh inhibitor every 12 h, mean ± SD, read-out: IC50, 50% growth inhibition, L1210) was 9.5 ± 3.8 µM. For the same compound, the Ki (human erythrocyte GlxI; of the unethylated species with human erythrocyte GlxI (17), read-out: Ki, competitive inhibition constant) was 0.046 µM, the “growth inhibition / cytotoxicity in words, B16” value ([8]; B16 cells in vitro) was “inhibited the growth” and the IC50 ([8]; Mus musculus, 48 h, RPMI 1640/10% fetal calf serum, 37° C., fresh inhibitor every 12 h, mean ± SD, read-out: IC50, 50% growth inhibition, B16) was 28 ± 7 µM. For the same compound, the logP [9] was 0.996, the “decrease in viability of splenic lymphocytes” value (splenic lymphocytes; 100 μM) was “less than 50%” and the “toxicity to splenic lymphocytes / selectivity in words” value (splenic lymphocytes; L1210 cells versus splenic lymphocytes) was “significantly more toxic to L1210 cells than to splenic lymphocytes”. For the same compound, the “first order rate constant for deethylation in human serum” value (Stability in human serum; 37° C., FIG. 6) was 0.147 ± 0.015 h⁻¹ and the half-life at 150 µM (Stability in human serum; human, serum, n=4, read-out: T1/2 in human serum (converted)) was 9.1 ± 5.3 h.

In the case of N[C@@H](CCC(=O)N[C@@H](CSC(=O)N(O)c1ccc(Cl)cc1)C(=O)NCC(=O)O)C(=O)O [Compound 2, S-(N-p-chlorophenyl N-hydroxycarbamoyl)glutathione], the “intracellular uptake in words” value (L1210 cells [6]; L1210 cells) is given as “no significant time-dependent increase in intracellular [2]”, the Ki (human erythrocyte GlxI; FIG. 8, read-out: Ki, tight-binding competitive inhibitor of human glyoxalase I) is given as 0.046 µM and the logP [9] is given as less than -2.

For CC[S+]([O-])C(=O)N(O)c1ccc(Cl)cc1 (stereo not drawn) [Compound 3a, S-(N-Hydroxy-N-p-chlorophenylcarbamoyl)ethyl sulfoxide], the “first order rate constant for loss of sulfoxide from serum” value ([5]; DBA/2 mice, n=3) was 0.06 ± 0.01 min⁻¹, the half-life ([5]; mouse, serum, DBA/2 mice, n=3, read-out: T1/2 of sulfoxide in serum) was 0.217 ± 0.0333 h and the “apparent first order rate constant for appearance of enediol analog inside the cells on incubation with sulfoxide” value (L1210 cells [6]) was 1.41±0.03 min^-1. For the same compound, the “intracellular uptake in words” value (L1210 cells [6]) was “rapid increase in the intracellular concentration of the corresponding enediol analog”, the “maximum intracellular concentration of inhibitor versus extracellular concentration of sulfoxide” value (L1210 cells [6]) was “about 10 -fold” and the “rate of influx of sulfoxide relative to diethyl ester 1(Et)2” value (L1210 cells [6]) was 35 -fold. For the same compound, the “time to maximum intracellular concentration of inhibitor” value (L1210 cells [6]) was “about 17 minutes”, the “rate constant relative to thioester 2a” value [2] was “exceed by several-fold that with the thioester 2 a” and the “k2, second order rate constant for acyl-interchange with glutathione” value [2] was 30.7 ± 1.2 M⁻¹ s⁻¹. The “second order rate constant for acyl-interchange reaction” value ([2]; 100 mM potassium phosphate, 5% ethanol, pH 7.5, 25° C.) was 30.7 M⁻¹ s⁻¹, the “rate constant relative to N--CH3 derivative 3c” value ([2]; exceeds) was 13 -fold and the “greater potency of sulfoxide versus diethyl ester” value (L1210 cells [7]) was 10 -fold. For the same compound, the “greater potency of sulfoxide versus diethyl ester” value (L1210 cells [7]; listed as S-(N-p-chlorophenyl-N-hydroxycarbamoyl)ethylsulfoxide) was “about 10 -fold”, the IC50 (L1210 cells [7]; Mus musculus, fresh drug every 12 h, read-out: IC50 toward L1210 cells, sulfoxide) was 0.8 ± 0.5 µM and the “reduction of intracellular glutathione concentration” value (L1210 cells [10]) was “less than 1%”.

For C[C@@H](O)C(=O)SC[C@H](NC(=O)CC[C@H](N)C(=O)O)C(=O)NCC(=O)O [S-D-lactoylglutathione], the “growth of HL60 cells” value (HL60 cells [4]; literature (25)) is listed as “inhibits the growth of HL60 cells in culture”.
